Common to all, as to format: cell-based
Test [1] relates to p53^+/+ HCT116 cells. The test can be described thus: Multiparametric flow cytometry of caspase-3/7 (DEVDase) activity and cell viability, p53+/+ HCT116. The following applies: TDZD 20 μM, 48 hours; for caspase-dependent apoptosis (DEVDase activity and plasma membrane integrity): p53+/+ HCT116, LiCl 30 mM. Here is the method:
(§1) The functional consequences of GSK3β inhibition were explored. Source and maintenance of p53^+/+ and p53^−/− HCT116 colorectal carcinoma cells were as described in Example 2. […] Alternatively, cells were incubated with GSK3β inhibitors LiCl (30 mM) or TDZD (20 μM), harvested after 48 hours and analyzed for cell viability (propidium iodide, red channel) and active caspase-3/7 activity (green channel, […]®, from Chemicon International Inc., Temecula, Calif.), by multiparametric flow cytometry as reported previously in Kim et al., Lancet, 362:205-209 (2003).
(§2) To clarify the role of GSK3β inhibition in p53-dependent apoptosis, HCT116 cells were treated with TDZD or LiCl and monitored changes in cell death. […] See the two center column panels of FIG. 6C. […] See right hand column panels of FIG. 6C.
A general note: A flow cytometer gives signals particle by particle.

The subject of test [2] is p53^−/− HCT116 cells. In words: Multiparametric flow cytometry of caspase-3/7 (DEVDase) activity and cell viability, p53-/- HCT116. The note with it: TDZD 20 μM, 48 hours; for apoptosis induction (DEVDase activity and plasma membrane integrity): p53-/- HCT116, LiCl 30 mM. On the procedure:
as §1, §2

Test [3] concerns p53^+/+ HCT116 colorectal carcinoma cells. In words: Western blotting of p53 pathway proteins in treated p53+/+ HCT116 cells. The note with it: for survivin expression (Western blot) / p53 expression (Western blot) / p21^Waf1/Cip1 expression (Western blot): p53+/+ HCT116; for p53 expression (Western blot) / p21^Waf1/Cip1 expression (Western blot): 6-24 hours. On the procedure: (§3) Cells were collected and centrifuged at 3,000 rpm for 5 minutes at 4° C., and washed in PBS (pH 7.2). The cell pellet was solubilized in lysis buffer (20 mM Tris, pH 7.2, 0.5% deoxycholate, 1% Triton X-100, 0.1% SDS, 150 mM NaCl, 1 mM EDTA) containing proteases inhibitors (Complete, Roche Applied Science) for 30 min at 4° C. The lysate was cleared by centrifugation for 15 minutes, and protein concentration was evaluated using a Bio-Rad protein assay system (Bio-Rad Laboratories, Hercules, Calif.). Samples (30 μg) were separated by SDS-polyacrylamide gel, transferred to nylon membranes (Millipore), and incubated with primary antibodies to p53 (Oncogene Research Products, FL-393, Santa Cruz Biotechnology, Inc., Santa Cruz, Calif.), p21^Waf1/Cip1 (Oncogene Research Products), XIAP (BD Transduction Laboratories), survivin (NOVUS Biologicals, Littleton, Colo.), MDM2 (Santa Cruz Biotechnology, Inc.), p14^ARF (NOVUS Biologicals), caspase-3 (Cell Signaling Technology), cleaved caspase-3 (Cell Signaling Technology), β-catenin (BD Transduction Laboratories), cyclin B1 (GNS1, Santa Cruz Biotechnology, Inc.), GSK3β (Santa Cruz Biotechnology, Inc.), or β-sactin (Sigma) with detection of reactive bands by chemiluminescence (Amersham). Cells were analyzed for hypodiploid DNA content by propidium iodide staining and flow cytometry as described in O'Connor et al., Cancer Cell, 2:43-54 (2002). Chemicals whose source is not explicitly listed were or can be obtained from Sigma.
To explore the link between GSK3β inhibition and p53 modulation, in vivo, HCT116 cells were treated with Li, TDZD or SB216763, and analyzed cells by Western blotting. p53^+/+ or p53^−/− HCT116 cells were incubated with the following GSK3β inhibitors, LiCl (Sigma, 30 mM), thiadiazolidinone-8 (TDZD) (Calbiochem, 0-20 μM), or SB216763 (Sigma, 20 μM), cells were harvested after 6-24 hours, and samples were analyzed by Western blotting as described in Example 2. […]
(In general: In western blotting, separated proteins are transferred to a membrane and probed.)

Test [4] addresses GSK3β (Homo sapiens, UniProt P49841). The test can be described thus: Immunoprecipitation and GSK3β kinase assay using glycogen synthase-derived peptide substrate, from treated HCT116 cells. The arrangement: harvested after 6 or 12 hours, and immunoprecipitated with an antibody to GSK3β; endogenous in cells; host or cells: HCT116 (p53+/+) colorectal carcinoma cells. The note with it: p53+/+ HCT116 cells; Purvalanol A 10 μM, LiCl 30 mM, TDZD 20 μM; 6 or 12 hours. Here is the method: Immune complexes were mixed with a synthetic peptide containing a GSK3β phosphorylation site derived from the sequence of glycogen synthase (Upstate Biotechnology) in the presence of 10 μCi of γ-^32P-ATP (Amersham Corp., Piscataway, N.J.), after 30 min incubation at 30° C., the reaction mixtures were centrifuged briefly, and 15 μl of the supernatant was spotted onto P81 phosphocellulose paper (Whatman Inc., Clifton, N.J.). The membrane was washed three times with 175 mM phosphoric acid, rinsed once in acetone, and dried. Changes in peptide phosphorylation under the various conditions tested were determined by scintillation counting. Data were analyzed using the unpaired t test on a Graphpad Prism software package for Windows (Graphpad Inc., San Diego, Calif.). A P value of 0.05 was considered as statistically significant.

Test [5] deals with p53^−/− HCT116 colorectal carcinoma cells. In words: Western blotting of p53 pathway proteins in treated p53-/- HCT116 cells. Here is the method: as §3
To explore the link between GSK3β inhibition and p53 modulation, in vivo, HCT116 cells were treated with Li, TDZD or SB216763, and analyzed cells by Western blotting. p53^+/+ or p53^−/− HCT116 cells were incubated with the following GSK3β inhibitors, LiCl (Sigma, 30 mM), thiadiazolidinone-8 (TDZD) (Calbiochem, 0-20 μM), or SB216763 (Sigma, 20 μM), cells were harvested after 6-24 hours, and samples were analyzed by Western blotting as described in Example 2.

Structures are written as SMILES.

Sequence of GSK3β (P49841 whole entry): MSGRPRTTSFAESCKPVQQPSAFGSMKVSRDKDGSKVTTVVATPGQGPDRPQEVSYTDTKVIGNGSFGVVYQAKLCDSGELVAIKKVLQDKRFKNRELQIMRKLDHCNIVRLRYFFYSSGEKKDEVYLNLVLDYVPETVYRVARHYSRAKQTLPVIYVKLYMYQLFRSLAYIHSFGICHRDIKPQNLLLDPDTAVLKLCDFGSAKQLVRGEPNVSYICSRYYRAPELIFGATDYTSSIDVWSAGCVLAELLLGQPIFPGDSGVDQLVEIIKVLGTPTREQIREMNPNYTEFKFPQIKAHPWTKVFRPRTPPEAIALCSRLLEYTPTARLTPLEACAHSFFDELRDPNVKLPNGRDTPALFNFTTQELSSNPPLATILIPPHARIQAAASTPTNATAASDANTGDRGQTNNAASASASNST

As for `[Cl-].[Li+]` [LiCl, lithium chloride], in test [1], the “caspase-dependent apoptosis (DEVDase activity and plasma membrane integrity)” value is “reproduced caspase-dependent apoptosis”. Also, the “apoptosis induction (DEVDase activity and plasma membrane integrity)” value in test [2] is reported as “considerably less effective at inducing apoptosis”. Moreover, in test [3], the “survivin expression (Western blot)” value is given as “time-dependent downregulation of survivin” and the “p53 expression (Western blot)” value is recorded as “elevation of p53 levels only at 24 hours after treatment”. Besides, the “GSK3β kinase activity (peptide phosphorylation)” value in test [4] is given as “suppressed GSK3β activity”.

Consider `Cn1cc(C2=C(c3ccc(Cl)cc3Cl)C(=O)NC2=O)c2ccccc21` [SB216763], for which, in test [3], the “p21^Waf1/Cip1 expression (Western blot)” value is “prominent upregulation” and the “p53 expression (Western blot)” value is “strong induction of p53”.

On to `Cn1sc(=O)n(Cc2ccccc2)c1=O` [TDZD, 4-Benzyl-2-methyl-1,2,4-thiadiazolidine-3,5-dione], for which the “caspase-dependent apoptosis (DEVDase activity and plasma membrane integrity)” value in test [1] is given as “reproduced caspase-dependent apoptosis”. In addition, the “increase in fraction of apoptotic cells” value in test [1] (p53+/+ cultures) is around 4.5 fold. In addition, the “apoptosis induction (DEVDase activity and plasma membrane integrity)” value in test [2] is reported as “considerably less effective at inducing apoptosis”. In addition, the “increase in fraction of apoptotic cells” value in test [2] (p53-/- cells) was 1.7 fold. Further, the “survivin expression (Western blot)” value in test [5] is “no changes in survivin expression”. Also, the “MDM2 expression (Western blot)” value in test [3] (HCT116 cells) was “reduced expression”. The “p14^ARF expression (Western blot)” value in test [3] (HCT116 cells, relative to vehicle) is reported as “upregulation of p14^ARF”. Also, in test [3], the “survivin expression (Western blot)” value is “time-dependent downregulation of survivin”, the “p21^Waf1/Cip1 expression (Western blot)” value is recorded as “prominent upregulation” and the “p53 expression (Western blot)” value is on record as “strong induction of p53”. Besides, in test [4], the “GSK3β kinase activity (peptide phosphorylation)” value was “suppressed GSK3β activity”.

For `O=C1Cc2c([nH]c3ccc([N+](=O)[O-])cc23)-c2ccccc2N1` [alsterpaullone], the “p53 expression (Western blot)” value in test [3] is reported as “elevation of p53 levels”.

The values are drawn from patent publication US20060204980A1, “Colorectal cancer therapies” (priority 2004, published 2006).
